Data from article PMC3001719, “The heme sensing response regulator HssR in Staphylococcus aureus but not the homologous RR23 in Listeria monocytogenes modulates susceptibility to the antimicrobial peptide plectasin” (BMC Microbiology, 2010).

Legend:
[1] = system: S. aureus wild type and response regulator mutants; test: Antibiotic susceptibility, commercial MIC technique (Trek); format: cell-based, Staphylococcus aureus; conditions: dehydrated antimicrobials in microtitre wells, data not shown
Experimental: (§1) Antimicrobial susceptibility to ampicillin, gentamicin, sulfa/trimethoprim, rifampicin, tetracycline, amoxy/clavulan, cephalotin, clindamycin, enrofloxacin, fusidic acid and oxacillin was performed with a commercially available MIC technique using dehydrated antimicrobials in microtitre wells (Trek Diagnostic Systems Ltd., UK).

[2] = system: L. monocytogenes wild type and response regulator mutant; test: as above; format: cell-based, Listeria monocytogenes; conditions: dehydrated antimicrobials in microtitre wells, data not shown
Experimental: as §1

[3] = system: S. aureus 15981 wild type; test: MIC, microbroth dilution; format: cell-based, Staphylococcus aureus; conditions: MHB pH 7.4, 5.0 × 10^5 CFU/ml, 18-24 h at 37°C, visual growth
Experimental: (§2) Protamine was purchased from Sigma (P4020-5G). Plectasin, eurocin, novicidin, and novispirin G10 were supplied by Department of Antiinfective Discovery, Novozymes A/S. The host defence peptides were dissolved in 0.01% acetic acid/0.1% bovine serum albumin (Sigma, A7906).
(§3) Minimal inhibitory concentrations (MIC) of plectasin, eurocin, protamine, novicidin, and novispirin G10 were determined using a microbroth dilution method. Colonies from a BHI plate incubated overnight at 37 °C were suspended in MHB pH 7.4 to an absorbance at 546 nm of 0.11-0.12 at 546 nm (approx. 1.0 × 10^8 CFU/ml) and diluted in MHB to a concentration of 5.0 × 10^5 CFU/ml. Ninety μl of bacterial suspension was incubated with 10 μl of peptide solution in polypropylene 96-well plates (Nunc, 442587) for 18-24 h at 37°C. The peptide solutions were made fresh on the day of assay. The range of concentrations assayed were 0.25-256 μg/ml for plectasin and eurocin, 0.125-128 μg/ml for protamine and novispirin G10, and 0.031-32 μg/ml for novicidin. MIC was the lowest peptide concentration at which visual growth was inhibited.

[4] = system: S. aureus 15981 ΔTCS15 (hssRS) deletion mutant; test: MIC, microbroth dilution; format: cell-based, Staphylococcus aureus; conditions: MHB pH 7.4, 5.0 × 10^5 CFU/ml, 18-24 h at 37°C, visual growth
Experimental: as §2, §3

[5] = system: S. aureus 8325-4 hssR (transduced mutant); test: MIC, microbroth dilution; format: cell-based, Staphylococcus aureus; conditions: transduced 8325-4 hssR mutant, MHB pH 7.4, 5.0 × 10^5 CFU/ml, 18-24 h at 37°C, visual growth
Experimental: as §2, §3

[6] = system: S. aureus 8325-4 hssR::bursa transposon mutant; test: MIC, microbroth dilution; format: cell-based, Staphylococcus aureus; conditions: MHB pH 7.4, 5.0 × 10^5 CFU/ml, 18-24 h at 37°C, visual growth
Experimental: as §2, §3

[7] = system: S. aureus 8325-4 hssR::bursa/pRMC2-hssRS (complementation of hssR transposon mutant); test: MIC, microbroth dilution; format: cell-based, Staphylococcus aureus; conditions: 8325-4 hssR::bursa/pRMC2-hssRS complemented mutant; microbroth dilution, MHB pH 7.4, 5.0 × 10^5 CFU/ml, 18-24 h at 37°C, visual growth
Experimental: as §2, §3

[8] = system: S. aureus 8325-4 wild type; test: MIC, microbroth dilution; format: cell-based, Staphylococcus aureus; conditions: MHB pH 7.4, 5.0 × 10^5 CFU/ml, 18-24 h at 37°C, visual growth
Experimental: as §2, §3

[9] = system: L. monocytogenes LO28 wild type; test: MIC, microbroth dilution; format: cell-based, Listeria monocytogenes; conditions: MHB pH 7.4, 5.0 × 10^5 CFU/ml, 18-24 h at 37°C, visual growth
Experimental: as §2, §3

[10] = system: S. aureus; test: ATP leakage (intracellular and extracellular ATP, bioluminescence); format: cell-based, Staphylococcus aureus; conditions: 50 mM HEPES pH 7.0 with 0.2% glucose, vs peptide dilution buffer, two independent experiments; for ATP leakage: S. aureus, 1,000 μg/ml peptide
Experimental: (§4) L. monocytogenes and S. aureus were grown in TSB at 37°C. Bacteria were harvested (10 min at 3000 RPM) at mid-exponential phase (absorbance at 546 nm of 2.5 ± 0.2 and 1.0 ± 0.2 for S. aureus and L. monocytogenes, respectively), washed once in 50 mM potassium phosphate buffer pH 7.0 and once in 50 mM HEPES buffer pH 7.0. The pellet was resuspended in 50 mM HEPES pH 7.0 to a final absorbance at 546 nm of 10. Bacteria were stored on ice and used within 5 hours. […] ATP was determined using a bioluminescence kit (Sigma, FLAA-1KT) and a BioOrbit 1253 luminometer. Total ATP content was determined by rapidly permeabilising 20 μl cell suspension with 80 μl dimethyl sulfoxide. The cell suspension was diluted in 4.9 ml sterile water, and ATP content was determined in 100 μl of the preparation as described by the manufacturer. To determine the extracellular ATP concentration, the 20 μl cell suspension was mixed with 80 μl sterile water and analyzed as described above. Intracellular ATP concentrations were calculated by using the intracellular volumes of 0.85 and 1.7 μm^3 for S. aureus and L. monocytogenes, respectively. The number of cells in suspension was determined by plate spreading.

[11] = system: L. monocytogenes; test: as above; format: cell-based, Listeria monocytogenes; conditions: 50 mM HEPES pH 7.0 with 0.2% glucose, vs peptide dilution buffer; for ATP leakage: L. monocytogenes, 1,000 μg/ml peptide
Experimental: as §4

[12] = system: plasmid DNA (pBluescript II SK+); test: DNA-binding analysis by in vitro gel retardation; conditions: 100 ng plasmid DNA with increasing amounts of peptide, 1 h at room temperature, data not shown
Experimental: Gel retardation analysis were performed as described by Nan et al by mixing 100 ng of plasmid DNA (pBluescript II SK^+(Stratagene)) with increasing amounts of peptide in 20 μl binding buffer (5% glycerol, 10 mM Tris, 1 mM EDTA, 1 mM dithiothreitol, 20 mM KCL and 50 μg ml^-1 bovine serum albumin). Reaction mixtures were incubated 1 h at room temperature and subjected to 1% agarose gel electrophoresis and visualised using ethidium bromide.

[13] = system: S. aureus 8325-4 hssR mutant; test: Growth in TSB with plectasin and/or hemin; format: cell-based, Staphylococcus aureus; conditions: hemin 4 μM, 37°C, with or without plectasin, hssR mutant
Experimental: (§5) Overnight cultures of S. aureus were diluted to an absorbance at 600 nm of 0.05 in TSB with and without 4 μM hemin and/or 35 μg/ml plectasin and grown at 37°C. Measurements of the absorbance were made every 30 minutes.

[14] = system: S. aureus 8325-4 wild type; test: Growth in TSB with plectasin and/or hemin; format: cell-based, Staphylococcus aureus; conditions: hemin 4 μM, 37°C, absorbance at 600 nm
Experimental: as §5

[15] = system: hrtAB efflux system expression; conditions: exposure to hemin, transcriptional activation by HssR; cited from earlier work
Description: Both HrtAB and HssRS are required for growth of S. aureus in hemin [14].

[16] = system: L. monocytogenes LO28 RR23 (rr23 insertion mutant); test: MIC, microbroth dilution; format: cell-based, Listeria monocytogenes; conditions: MHB pH 7.4, 5.0 × 10^5 CFU/ml, 18-24 h at 37°C, visual growth
Experimental: as §2, §3

CC1(C)S[C@@H]2[C@H](NC(=O)[C@H](N)c3ccccc3)C(=O)N2[C@H]1C(=O)O [ampicillin]
Change in MIC, wild type vs response regulator mutants [1]: No change in MIC values | Change in MIC, wild type vs response regulator mutant [2]: No change in MIC values

CC(=O)OCC1=C(C(=O)O)N2C(=O)[C@@H](NC(=O)Cc3cccs3)[C@H]2SC1 [cephalotin]
Change in MIC, wild type vs response regulator mutants [1]: No change in MIC values | Change in MIC, wild type vs response regulator mutant [2]: No change in MIC values

CCC[C@@H]1C[C@@H](C(=O)N[C@@H]([C@H]2O[C@H](SC)[C@H](O)[C@@H](O)[C@H]2O)[C@H](C)Cl)N(C)C1 [clindamycin]
Change in MIC, wild type vs response regulator mutants [1]: No change in MIC values | Change in MIC, wild type vs response regulator mutant [2]: No change in MIC values

CCN1CCN(c2cc3c(cc2F)c(=O)c(C(=O)O)cn3C2CC2)CC1 [enrofloxacin]
Change in MIC, wild type vs response regulator mutants [1]: No change in MIC values | Change in MIC, wild type vs response regulator mutant [2]: No change in MIC values

CC(=O)O[C@H]1C[C@@]2(C)[C@@H](C[C@@H](O)[C@H]3[C@@]4(C)CC[C@@H](O)[C@@H](C)[C@@H]4CC[C@@]32C)/C1=C(\CCC=C(C)C)C(=O)O [fusidic acid]
Change in MIC, wild type vs response regulator mutants [1]: No change in MIC values | Change in MIC, wild type vs response regulator mutant [2]: No change in MIC values

CNC(C)C1CCC(N)C(OC2C(N)CC(N)C(OC3OCC(C)(O)C(NC)C3O)C2O)O1 (centres unmarked) [gentamicin]
Change in MIC, wild type vs response regulator mutants [1]: No change in MIC values | Change in MIC, wild type vs response regulator mutant [2]: No change in MIC values

Cc1onc(-c2ccccc2)c1C(=O)N[C@@H]1C(=O)N2[C@@H]1SC(C)(C)[C@@H]2C(=O)O [oxacillin]
Change in MIC, wild type vs response regulator mutants [1]: No change in MIC values | Change in MIC, wild type vs response regulator mutant [2]: No change in MIC values

CO[C@H]1/C=C/O[C@@]2(C)Oc3c(C)c(O)c4c(O)c(c(/C=N/N5CCN(C)CC5)c(O)c4c3C2=O)NC(=O)/C(C)=C\C=C\[C@H](C)[C@H](O)[C@@H](C)[C@@H](O)[C@@H](C)[C@H](OC(C)=O)[C@@H]1C [rifampicin]
Change in MIC, wild type vs response regulator mutants [1]: No change in MIC values | Change in MIC, wild type vs response regulator mutant [2]: No change in MIC values

CN(C)[C@@H]1C(O)=C(C(N)=O)C(=O)[C@@]2(O)C(O)=C3C(=O)c4c(O)cccc4[C@@](C)(O)[C@H]3C[C@@H]12 [tetracycline]
Change in MIC, wild type vs response regulator mutants [1]: No change in MIC values | Change in MIC, wild type vs response regulator mutant [2]: No change in MIC values

eurocin
MIC [3]: 8 µg/mL | MIC [4]: 32 µg/mL | MIC [5]: 64 µg/mL | MIC [6]: 64 µg/mL | MIC [7]: 32 µg/mL | MIC [8]: 32 µg/mL | MIC [9]: 128 µg/mL | ATP leakage (intracellular ATP concentration) ([10]; S. aureus, 500 μg/ml peptide): remained at the same level as the controls | ATP leakage (intracellular ATP concentration) ([11]; L. monocytogenes, 500 μg/ml peptide): remained at the same level as the controls | Binding to DNA [12]: unable to demonstrate binding

hemin
Growth in the presence of hemin [13]: almost completely inhibited | Growth in the presence of hemin [14]: only affected by plectasin (35 μg/ml) and not hemin | Increase of expression of hrtAB efflux system [15]: 45 fold

novicidin
MIC [3]: 1 µg/mL | MIC [4]: 1 µg/mL | MIC [5]: 1 µg/mL | MIC [6]: 1 µg/mL | MIC [8]: 1 µg/mL | MIC [16]: 1 µg/mL | MIC [9]: 1 µg/mL | ATP leakage [10]: increased ATP leakage | ATP leakage [11]: increased ATP leakage

novispirin G10
MIC [3]: >128 µg/mL | MIC [8]: 128 µg/mL | MIC [16]: 16 µg/mL | MIC [9]: 16 µg/mL

protamine
MIC [3]: 16 µg/mL | MIC [4]: 16 µg/mL | MIC [5]: 16 µg/mL | MIC [6]: 16 µg/mL | MIC [8]: 16 µg/mL | MIC [16]: 16 µg/mL | MIC [9]: 16 µg/mL | ATP leakage [10]: increased ATP leakage | ATP leakage [11]: increased ATP leakage
